From patent publication US6555574B1, “4-oxybenzopyran derivative” (Nissan Chemical Industries, Ltd., priority 1999, dated 2003) come the findings set out here.

As a reminder, the melting point is the temperature, or range, at which the solid turns liquid.

The compound `COc1ccc(CC(=O)Nc2cc3c(cc2[N+](=O)[O-])OC(C)(C)[C@H](O)[C@H]3OCCc2ccccc2)cc1` [Synthesis example 6, Trans-3,4-dihydro-2,2-dimethyl-6-(4-methoxyphenyl)acetylamino-7-nitro-4-(2-phenylethoxy)-2H-1-benzoypyran-3-ol] yielded a melting point of 125.2 to 125.5 °C.
The compound `COc1ccc(CC(=O)Nc2cc3c(cc2[N+](=O)[O-])OC(C)(C)[C@H](O)[C@H]3Oc2ccccc2)cc1` (relative stereo) [Synthesis example 7, Trans-3,4-dihydro-2,2-dimethyl-6-(4-methoxyphenyl)acetylamino-7-nitro-4-phenyloxy-2H-1-benzopyran-3-ol] came in with a melting point of 178 to 178.6 °C.
Compound `COc1ccc(CC(=O)Nc2cc3c(cc2[N+](=O)[O-])OC(C)(C)[C@H](O)[C@H]3OCc2ccccc2)cc1` [Synthesis example 8] came in with a melting point of 117.8 to 119.1 °C.
`CCCO[C@H]1c2cc(NC(=O)Cc3ccc(OC)cc3)c([N+](=O)[O-])cc2OC(C)(C)[C@@H]1O` (relative stereo) [Synthesis example 4, (3R*, 4S*)-3,4-dihydro-2,2-dimethyl-4-propoxy-6-(4-methoxyphenylacetylamino)-7-nitro-2H-1-benzopyran-3-ol]: the melting point lay in the range of 115 to 116 °C.
